“Also recorded” adds a separate entry of the source.

Here are results for one compound from paper PMC4188605, “Biochemical and Pharmacological Characterization of the Human Lymphocyte Antigen B-Associated Transcript 5 (BAT5/ABHD16A)” (PLoS ONE, 2014).

The target in assay [1] is T1, hBAT5 (Homo sapiens, UniProt O95870).
T1 sequence (O95870 1-558): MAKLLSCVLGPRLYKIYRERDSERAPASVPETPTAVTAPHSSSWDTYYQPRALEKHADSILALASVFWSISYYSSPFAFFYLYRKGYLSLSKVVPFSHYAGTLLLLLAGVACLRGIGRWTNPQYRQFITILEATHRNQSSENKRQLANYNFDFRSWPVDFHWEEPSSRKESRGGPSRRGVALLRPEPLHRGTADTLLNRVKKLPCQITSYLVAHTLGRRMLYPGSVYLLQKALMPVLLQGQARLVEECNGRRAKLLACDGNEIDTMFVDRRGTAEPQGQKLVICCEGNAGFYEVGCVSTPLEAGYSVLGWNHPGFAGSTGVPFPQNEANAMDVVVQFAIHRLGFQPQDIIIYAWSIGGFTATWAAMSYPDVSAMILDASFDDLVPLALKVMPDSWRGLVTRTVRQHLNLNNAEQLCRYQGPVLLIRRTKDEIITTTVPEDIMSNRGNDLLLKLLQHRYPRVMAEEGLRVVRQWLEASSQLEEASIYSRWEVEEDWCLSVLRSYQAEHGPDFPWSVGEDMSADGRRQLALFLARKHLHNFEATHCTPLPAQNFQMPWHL
Description: Inhibition of 1-LG hydrolysis in hBAT5-HEK293 lysates (fluorescent glycerol assay). In kind it is biochemical. Further details: host or cells: HEK293. The following applies: 1-LG 25 µM; 30 min inhibitor pretreatment; monitored 90 min; mean, n=3; read-out: IC50.

In assay [2] the target is T2, MAGL (Mus musculus, UniProt O35678).
T2 sequence (O35678 1-303): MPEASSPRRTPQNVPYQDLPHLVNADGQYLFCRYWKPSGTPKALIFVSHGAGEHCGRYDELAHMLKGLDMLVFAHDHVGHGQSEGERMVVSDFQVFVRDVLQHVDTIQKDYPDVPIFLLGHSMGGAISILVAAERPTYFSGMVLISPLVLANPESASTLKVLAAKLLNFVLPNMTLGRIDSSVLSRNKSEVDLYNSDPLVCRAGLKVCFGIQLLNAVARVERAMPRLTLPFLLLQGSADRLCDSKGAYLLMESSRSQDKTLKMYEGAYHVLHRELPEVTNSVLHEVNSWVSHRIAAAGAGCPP
Briefly: Competitive ABPP, mouse brain membrane proteome: MAGL doublet. To be noted: at the highest concentration (10^−5 M).

Assay [3] deals with T3, ABHD6 (Mus musculus, UniProt Q8R2Y0).
T3 sequence (Q8R2Y0 1-336): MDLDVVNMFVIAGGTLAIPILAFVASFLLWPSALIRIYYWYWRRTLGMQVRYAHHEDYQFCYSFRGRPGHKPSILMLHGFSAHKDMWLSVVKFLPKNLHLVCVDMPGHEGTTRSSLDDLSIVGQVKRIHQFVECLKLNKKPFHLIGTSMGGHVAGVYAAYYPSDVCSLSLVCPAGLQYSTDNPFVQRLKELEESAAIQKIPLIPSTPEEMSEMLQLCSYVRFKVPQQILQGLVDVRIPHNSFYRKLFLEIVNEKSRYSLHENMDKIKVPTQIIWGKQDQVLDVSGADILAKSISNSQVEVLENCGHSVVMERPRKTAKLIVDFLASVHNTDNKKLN
Briefly: Competitive ABPP, mouse brain membrane proteome: ABHD6 band. The following applies: at the highest concentration (10^−5 M).

Assay [4] deals with LYPLA1. Set-up: method as in PMID 20418879. To be noted: originally reported; read-out: IC50 in vitro towards LYPLA1; cited from earlier work.
Assay [5] concerns LYPLA1/2. Briefly: Competitive ABPP, mouse brain membrane proteome: LYPLA1/2 band. To be noted: tested concentration range 10^−8–10^−5 M.
The target of assay [6] is T4, hABHD6 (Homo sapiens, UniProt Q9BV23).
T4 construct: expressed in transfected cells; host or cells: HEK293
T4 sequence (Q9BV23 1-337): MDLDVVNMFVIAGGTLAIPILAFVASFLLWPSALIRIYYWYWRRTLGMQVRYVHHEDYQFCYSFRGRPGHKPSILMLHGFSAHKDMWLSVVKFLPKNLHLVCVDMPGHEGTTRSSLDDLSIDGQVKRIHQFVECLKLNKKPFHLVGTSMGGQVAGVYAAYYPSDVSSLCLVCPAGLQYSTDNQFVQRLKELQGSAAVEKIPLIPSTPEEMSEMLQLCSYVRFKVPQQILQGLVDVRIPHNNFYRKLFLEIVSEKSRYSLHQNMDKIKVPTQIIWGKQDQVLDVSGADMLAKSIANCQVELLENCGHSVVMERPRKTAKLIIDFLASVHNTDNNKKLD
Briefly: Hydrolase activity assay, hABHD6-HEK lysates. Format: biochemical. To be noted: hABHD6-HEK lysates; read-out: IC50.

Assay [7] concerns the target T5, ABHD12 (Mus musculus, UniProt Q99LR1).
T5 sequence (Q99LR1 1-398): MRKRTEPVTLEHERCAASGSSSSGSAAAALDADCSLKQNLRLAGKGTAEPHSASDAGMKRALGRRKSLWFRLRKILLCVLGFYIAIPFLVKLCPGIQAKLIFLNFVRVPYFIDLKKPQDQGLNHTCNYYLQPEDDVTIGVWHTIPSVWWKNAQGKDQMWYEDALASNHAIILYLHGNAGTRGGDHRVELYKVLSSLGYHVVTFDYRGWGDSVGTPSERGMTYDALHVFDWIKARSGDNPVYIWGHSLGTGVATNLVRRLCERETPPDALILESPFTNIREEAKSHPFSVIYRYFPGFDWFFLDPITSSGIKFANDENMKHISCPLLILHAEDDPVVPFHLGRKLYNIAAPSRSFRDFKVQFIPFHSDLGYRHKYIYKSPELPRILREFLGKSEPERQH
Briefly: Competitive ABPP, mouse brain membrane proteome: ABHD12 band. The following applies: tested concentration range 10^−8–10^−5 M.

The IC50 is the concentration needed to halve the response being measured. Turning to `CCCCCCCCCC[C@@H]1C(=O)O[C@H]1CCc1ccc(OC)c(OC)c1` [Palmostatin B, palmostatin B], the figures for the IC50 in assay [1], in assay [4] and in assay [6] were 100 nM, 670 nM and 52.5 nM, respectively. Besides, the “inhibition of probe binding to MAGL” value in assay [2] is “inhibited probe binding; also recorded: also inhibited”. Also, the “inhibition of probe binding to ABHD6” value in assay [3] is given as “inhibited probe binding; also recorded: also inhibited”. Besides, the “inhibition of probe binding to LYPLA1/2” value in assay [5] is on record as “dose-dependently inhibited probe binding; also recorded: dose-dependently inhibits probe labeling”. The “inhibition of probe binding to ABHD12” value in assay [7] is on record as “dose-dependently inhibited probe binding; also recorded: dose-dependently inhibits probe labeling”.
